Consider 97 molecules from PubChem BioAssay AID372 (MTDP, 2006).

The structures appear in SMILES notation. Calls of active or inactive are those of the source. Cut-off read from the data, not from the text of the source: active = inhibition above about 50%; inactive = the rest.

The experiment addresses Gag-Pol polyprotein (Human immunodeficiency virus type 1 group M subtype B (isolate HXB2)) (UniProt P04585). Briefly: RNase H inhibition, HIV 1 Gag Pol polyprotein, FRET biochemical assay, screening (AID 372). To be noted: HIV-1 RT RNase H, FRET RNA/DNA substrate fluorescence.
As to `Cc1sc(NC(=O)c2ccc(Br)o2)c(C(N)=O)c1C`, the IC50 was 5.5 µM.

Turning to `CCOc1ccc(N2C(=O)/C(=C/c3ccc(Br)o3)C(=O)NC2=S)cc1`, the IC50 was 2.1 µM.

On to `COc1cccc2cc(C(N)=O)c(=O)oc12`, for which the IC50 was 4 µM.

As to `COc1ccc(N2C(=O)/C(=C/c3ccc(I)o3)C(=O)NC2=S)cc1`, the IC50 was 3.7 µM.

Regarding `Cc1ccc(C)n1-c1ccc(Br)cc1C(=O)O`, the IC50 was 32 µM.

`NC(=O)c1c(N)sc2c1CCCCC2`: the IC50 is 2 µM.

As for `O=C1C=CC(=O)C(c2cc(Cl)ccc2Cl)=C1`, the IC50 is 2.1 µM.

As for `COc1ccccc1NC(=O)c1c(NC(=O)Cc2ccccc2)sc2c1CCCCC2`, the IC50 result is “inactive”.

In the case of `O=C1C(Cl)=CC(=NS(=O)(=O)c2ccccc2)C=C1Cl`, the concentration for half-maximal inhibition (IC50) is 3.1 µM.

As to `Cc1cc(-c2ccc(C=C3C(=O)NC(=S)NC3=O)o2)c([N+](=O)[O-])cc1C`, the IC50 was 3 µM.

With `Cc1cccc(NC(=O)c2c(NC(=O)c3ccc([N+](=O)[O-])cc3)sc3c2CCCC3)c1`, the IC50 is 1.5 µM.

Regarding `Cc1cc(I)c2c(c1)C1C=CCC1C(C(=O)O)N2` (configuration not stated), the IC50 is 100 µM.

For `Cc1cc(Br)ccc1N1C(=O)/C(=C/c2ccco2)C(=O)NC1=S`, the IC50 is 7 µM.

Regarding `Nc1ccc(S(=O)(=O)O)c2cccc(O)c12`, the IC50 is 10 µM.

As for `C=CCN1C(=O)/C(=C\c2ccc([N+](=O)[O-])o2)C(=O)NC1=S`, the IC50 was 75 µM.

For the molecule `Cc1ccc(S(=O)(=O)/N=C2\C=CC(=O)C=C2Cl)cc1`, the IC50 was 1.5 µM.

On to `Cc1c(Cl)ccc2c1NC(C(=O)O)C1CC=CC21` (configuration not stated), for which the IC50 was 22 µM.

Regarding `NC(=O)c1c(NC(=O)COc2ccccc2)sc2c1CCCCC2`, the IC50 result was “inactive”.

Turning to `O=C1NC(=S)N(c2ccccc2F)C(=O)/C1=C/c1ccc(OCc2cccc(C(=O)O)c2)cc1`, the IC50 was 9 µM.

In the case of `O=C1NC(=S)N(c2ccc(Cl)cc2)C(=O)/C1=C\C=C\c1ccccc1[N+](=O)[O-]`, the IC50 is 3.3 µM.

In the case of `O=C1C(Cl)=C/C(=N\S(=O)(=O)c2ccc(Cl)cc2)C(Cl)=C1Cl`, the IC50 was 4 µM.

As to `N#Cc1c(N)nc(SCC(=O)c2ccc(O)c(O)c2)c(C#N)c1-c1ccc(O)cc1`, the IC50 is 0.9 µM.

For `CCOc1ccc(N2C(=O)/C(=C/c3ccc(I)o3)C(=O)NC2=S)cc1`, the IC50 was 4.8 µM.

Turning to `Cc1ccc(C)n1-c1ccc(SCC(=O)O)cc1`, the IC50 was 8 µM.

`O=C1Nc2ccc(I)cc2C1(O)N1CCOCC1` (configuration not stated): the half-maximal inhibitory concentration (IC50) is 6.3 µM.

Regarding `COc1ccc(C(=O)NC(=S)Nc2ccc3nn(-c4ccc(C)c(Cl)c4)nc3c2)cc1[N+](=O)[O-]`, the IC50 was 17 µM.

On to `Cc1ccc(C=C2C(=O)NC(=S)N(c3ccccc3Cl)C2=O)o1`, for which the IC50 is 8 µM.

As to `COc1ccc2oc(=O)c(-c3csc(Nc4ccc(Br)cc4)n3)cc2c1`, the IC50 is 10.1 µM.

Regarding `O=C1/C(=C/c2ccc(O)c(O)c2)SC(=S)N1c1ccc(O)cc1`, the IC50 was 3.5 µM.

Consider `O=C1c2ccccc2C(=O)N1c1ccc(-c2nc3ccc(N4C(=O)c5ccccc5C4=O)cc3[nH]2)cc1`, for which the IC50 was 4 µM.

`COc1ccc(-c2c(C#N)c(N)nc(SCC(=O)c3ccc(O)c(O)c3)c2C#N)cc1`: the IC50 was 1.8 µM.

As for `Cc1cc(C)c2c(=O)[nH]c(SCC(=O)c3ccc(O)c(O)c3)nc2n1`, the IC50 is 3.4 µM.

`O=C(Oc1ccccc1)Oc1c(Cl)cc2oc(=O)sc2c1Cl`: the IC50 was 19 µM.

For the molecule `O=C1/C(=C\c2ccc(O)c(O)c2)SC(=S)N1c1cccc(Cl)c1`, the IC50 is 4.5 µM.

Consider `O=C1NC(=S)N(c2ccccc2F)C(=O)C1=Cc1ccco1`, for which the IC50 is 2.2 µM.

Regarding `O=C(N/N=C/c1ccc(/C=N/NC(=O)c2ccc(O)c(O)c2)cc1)c1ccc(O)c(O)c1`, the concentration for half-maximal inhibition (IC50) is 2.1 µM.

As for `Cc1ccc(NC(=O)c2c(NC(=O)C(F)(F)F)sc(-c3ccccc3)c2C)c(C)c1`, the IC50 is 2.8 µM.

For the molecule `COc1cc(/C=N\c2sc3c(c2C(=O)NCc2ccccc2)CCCC3)cc(Cl)c1O`, the IC50 is 2.1 µM.

As to `Oc1c(Br)cc(/C=N/Nc2nnc3c(n2)[nH]c2ccccc23)c(Br)c1O`, the IC50 is 4 µM.

Consider `Cc1ccc(C)n1-c1ccc(O)c(C(=O)O)c1`, for which the IC50 is 9 µM.

On to `O=c1oc2ccccc2c(O)c1/C=C1\C=Nc2ccccc21`, for which the half-maximal inhibitory concentration (IC50) is 3.2 µM.

Regarding `COc1ccc(NC(=O)c2c(N)sc(-c3ccccc3)c2C)cc1`, the IC50 was 7 µM.

Consider `Cc1onc(-c2ccccc2)c1C(=O)Nc1sc(C)c(C)c1C(N)=O`, for which the IC50 result is “inactive”.

Regarding `O=C(N/N=C/c1ccccc1Cl)c1cc(O)c(O)c(O)c1`, the IC50 was 0.6 µM.

Regarding `CCC(=O)Nc1sc2c(c1C(=O)Nc1ccc(OC)cc1)CCCCC2`, the IC50 result was “inactive”.

`CCOc1ccc(NC(=O)c2c(NC(=O)c3ccccc3)sc3c2CCCCC3)cc1`: the IC50 result is “inactive”.

On to `O=C(Cc1ccccc1Cl)c1ccc(O)c(O)c1O`, for which the IC50 was 2 µM.

Take `O=C1C=C/C(=N\S(=O)(=O)c2cc(Cl)ccc2Cl)C=C1Cl`: the half-maximal inhibitory concentration (IC50) was 2 µM.

`O=C1NC(=S)N(c2cccc(Cl)c2)C(=O)/C1=C\C=C\c1ccco1`: the IC50 was 7.7 µM.

With `COC(=O)c1c(N)sc(C(=O)Nc2ccc(OC)cc2)c1C`, the IC50 is 6.6 µM.

Consider `O=C(Nc1sc2c(c1C(=O)Nc1cccc3ccccc13)CCCCC2)c1ccccc1F`, for which the IC50 entry was “inactive”.

For the molecule `N#C/C(=C\Nc1ccc(S(=O)(=O)Nc2nccs2)cc1)c1nc(-c2ccc(Cl)cc2)cs1`, the IC50 is 4.1 µM.

With `Oc1ccc(/C=N/Nc2nncc(-c3ccccc3)n2)c(O)c1O`, the IC50 is 6.8 µM.

In the case of `Cc1sc(NC(=O)c2ccc3c(c2)OCO3)c(C(N)=O)c1C`, the IC50 entry was “inactive”.

On to `O=C1NN(c2ccc(I)cc2)C(=O)/C1=C\c1ccc(O)c(O)c1`, for which the IC50 was 10.8 µM.

In the case of `CC1=NN(c2ccc(S(N)(=O)=O)cc2)C(=O)/C1=C/c1ccc(-c2ccc(Cl)cc2Cl)o1`, the concentration for half-maximal inhibition (IC50) is 3.8 µM.

For the molecule `O=S(=O)(Nc1cccc(C(F)(F)F)c1)c1ccc2ccccc2c1`, the IC50 was 25 µM.

Take `Cc1ccccc1-n1c(O)c(C=C2C=CC=N2)c(=O)[nH]c1=S`: the IC50 is 10.2 µM.

Regarding `Cc1ccc(S(=O)(=O)N=C2C=CC(=O)C=C2)c(C)c1`, the IC50 was 1.9 µM.

For the molecule `O=c1[nH]c(=S)n(-c2ccccc2F)c(O)c1C=C1C=CC=N1`, the IC50 was 2.3 µM.

For the molecule `O=C1C=CC(=O)C(c2cccc(Cl)c2)=C1`, the IC50 was 2.3 µM.

Consider `Cc1ccc(S(=O)(=O)N=C2C=C(Cl)C(=O)C(Br)=C2)cc1`, for which the IC50 is 3.1 µM.

Take `COc1cc(C=O)ccc1OCCCOc1cccc(Oc2ccccc2)c1`: the IC50 was 100 µM.

In the case of `Cc1sc2nc(-c3ccc([N+](=O)[O-])cc3)[nH]c(=O)c2c1C`, the IC50 is 0.55 µM.

`Cc1sc(NC(=O)c2cccc([N+](=O)[O-])c2)c(C(N)=O)c1C`: the IC50 entry was “inactive”.

As to `Cc1nn(CC(=O)Nc2sc(C)c(C)c2C(N)=O)c(C)c1[N+](=O)[O-]`, the IC50 is 4.3 µM.

Regarding `O=C(Nc1ccc(N2CCN(C(=O)c3ccccc3)CC2)cc1)c1ccc(-c2ccccc2)cc1`, the IC50 was 4.2 µM.

In the case of `CCOc1ccc(NC(=O)c2c(NC(=O)c3ccco3)sc3c2CCCCC3)cc1`, the IC50 is 10 µM.

Turning to `Cc1ccc(-c2cc(C(=O)Nc3sc(C(=O)OC(C)C)c(C)c3C(N)=O)c3ccccc3n2)s1`, the IC50 entry was “inactive”.

Regarding `Cc1sc(NC(=O)C2CC3CCC2C3)c(C(N)=O)c1C` (configuration not stated), the IC50 is 13 µM.

With `CCOc1ccc(C(=O)Nc2ccc3c(c2)C(=O)c2ccccc2C3=O)cc1`, the IC50 was 8 µM.

On to `Cc1cc(Cl)ccc1OCC(=O)Nc1sc(C)c(C)c1C(N)=O`, for which the half-inhibitory concentration (IC50) was 10.7 µM.

`O=C(O)c1cc(-c2ccc(/C=C3/Sc4ccccc4C3=O)o2)ccc1O`: the IC50 is 3.3 µM.

In the case of `COc1ccc(/C=C\C(=O)c2c(-c3ccccc3)c3cc(C)ccc3[nH]c2=O)c(OC)c1`, the IC50 was 22 µM.

For `Cc1sc(NC(=O)c2ccco2)c(C(N)=O)c1C`, the IC50 is 3.2 µM.

On to `NC(=O)c1c(NC(=O)CCc2ccccc2)sc2c1CCCCCC2`, for which the IC50 is 1.5 µM.

Take `Cc1ccc(N2C(=O)/C(=C/c3ccc(O)c(O)c3)SC2=S)cc1C`: the IC50 is 12 µM.

As for `O=C1NC(=S)N(c2ccc(Cl)cc2)C(=O)/C1=C/c1ccc(Br)o1`, the 50% inhibitory concentration (IC50) is 1.7 µM.

For `O=C1NC(=S)N(c2ccc(Cl)cc2)C(=O)/C1=C/c1ccco1`, the IC50 was 8.9 µM.

On to `C=CCn1c(N)c(-c2nc3ccccc3[nH]2)sc1=S`, for which the IC50 was 2.8 µM.

As for `COc1ccc2c(c1)N(C(=O)CN1C(=O)c3ccccc3C1=O)C(C)(C)c1ssc(=S)c1-2`, the IC50 was 3 µM.

Consider `Cc1ccc(-c2c(C#N)c(SCC(=O)c3ccc(O)c(O)c3)nc3c2CCCC3)o1`, for which the 50% inhibitory concentration (IC50) is 6.5 µM.

Regarding `Cc1ccc(C(=O)Nc2sc(C)c(C)c2C(N)=O)cc1`, the IC50 was 0.6 µM.

Take `O=C1/C(=C/c2ccc(O)c(O)c2)SC(=S)N1C1CCCCC1`: the IC50 was 5.7 µM.

As for `COc1ccc(N2C(=O)/C(=C\c3cn(CC(=O)Nc4ccccc4)c4ccccc34)C(=O)NC2=S)cc1`, the concentration for half-maximal inhibition (IC50) was 5 µM.

In the case of `O=C1C(Cl)=C/C(=N\S(=O)(=O)c2ccccc2)C(Cl)=C1Cl`, the IC50 was 3.8 µM.

Turning to `O=C1CC(=O)c2ccc3c4c(ccc1c24)C(=O)CC3=O`, the half-inhibitory concentration (IC50) was 3.8 µM.

With `Cc1cc(C(=O)O)ccc1-n1c(C)ccc1C`, the IC50 was 100 µM.

Consider `Cc1cccc(NCC(=O)N/N=C\c2c(Br)cc(Br)c(O)c2Br)c1`, for which the IC50 was 62 µM.

Turning to `Cc1sc(NC(=O)C2CCCO2)c(C(N)=O)c1C` (configuration not stated), the IC50 was 3 µM.

As to `CCOc1cccc(N2C(=O)/C(=C/c3cn(CC(=O)OC)c4ccccc34)C(=O)NC2=S)c1`, the IC50 was 5.5 µM.

With `Cc1ccc(-c2n[nH]c(=S)n2/N=C/c2ccc(O)c(O)c2O)cc1`, the IC50 was 1.8 µM.

For the molecule `COc1ccccc1N=C(NOCc1ccc(Cl)cc1Cl)c1nonc1N`, the IC50 is 1.7 µM.

As for `O=C(NC(=S)Nc1cc(-c2nc3ccccc3s2)ccc1Cl)c1ccc(F)cc1`, the IC50 was 9.1 µM.

On to `Cc1ccc(-n2c(/C=C/c3ccc(O)c(O)c3)nc3ccccc3c2=O)cc1`, for which the IC50 was 3.8 µM.

`CC(C)OC(=O)c1cc(O)c(O)c(O)c1`: the IC50 is 1.3 µM.

Regarding `O=C1/C(=C/c2ccco2)C(=O)N(c2ccc(Br)cc2)C(=S)N1c1ccccc1`, the IC50 is 10.2 µM.

The term IC50 denotes the concentration needed to halve the response being measured.
